The source of these data is PubChem BioAssay (NCI).

The subject of this assay is P388/ADR leukemia. The assay is described as follows: NCI tumour cell line growth inhibition, 48 h.

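Method: 48-hour compound exposure of cells in 96-well plates, five concentrations, linear interpolation of endpoints. TGI: concentration producing complete growth inhibition.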

In the case of `O=C1C(=O)c2ccccc2C(O)=C1CC=C(Cl)Cl`, the TGI was 49.9 µM.
